# In US8288363B2, “Medicaments for anti-herpes virus treatments” (ASE & BIO, priority 2006, dated 2012):
# Legend:
# [1] = tested on: HSV-1, HSV-1R, HSV-2 and HSV-2R; assay: Action as a function of the moment of use (time of addition); assay type: cell-based, herpes simplex virus; conditions: for Inhibitory effect as a function of the moment of use: viral strains HSV-1R and HSV-2R, PS3 even when used 3 hours after infection, 72 hours
# Method: To determine at what moment it is appropriate to use PS3, the procedure was as follows.
# Vero cells were seeded at a cell density of 3.5·10^4 cells/well of a 96-well microtitre plate in 100 μl of MEM medium containing 8% FCS and they were then infected by being brought into contact with the various viral strains identified above for 1 hour at 4° C.
# The infected cells were then washed with a saline buffer in order to remove the viral particles which had not be adsorbed.
# The infected cells were then treated with PS3 or with the comparison product: • either at the moment of infection, • or 1, 2, 3 and 5 hours after infection.
# In each case the microtitre plates were kept at 37° C. for 72 hours. The inhibitory effect of PS3 or of the comparison product, in this case acyclovir, was then determined for each viral strain.
# [2] = tested on: HSV-1, HSV-1R, HSV-2 and HSV-2R; assay: Action on the viral adsorption, conclusion for the strains together; assay type: cell-based, herpes simplex virus
# Method: To determine whether PS3 has an effect on the viral adsorption, the procedure was as follows.
# Vero cells were seeded at a cell density of 3.5·10^4 cells/well of a 96-well microtitre plate in 100 μl of MEM medium containing 8% FCS 24 hours before the test. The viral suspensions of HSV-1, HSV-1R, HSV-2 and HSV-2R, defined by an MOI of 0.01 ID50/cell for a cell concentration of 350,000 cells/ml, were tested.
# On the day of the test, the cells were subjected to three different treatments designated A, B and C.
# According to treatment A, cells treated with 50 μl of PS3 or comparison product (acyclovir) of a given concentration were infected with 50 μl of one of the viral suspensions identified above for one hour at 4° C.
# The infected cells were then washed with 100 μl of saline buffer in order to remove the PS3 or the reference product as well as the viral particles which had not been adsorbed by the cells.
# After having filled each well with sufficient MEM medium containing 8% FCS to arrive at a volume of 200 μl, the cells were then placed in an oven at 37° C. for 72 hours. […]
# For these 3 treatments, the inhibitory effect of PS3 and of the reference product (expressed in EC50) on the adsorption of the four abovementioned viral strains after 72 hours was evaluated by measurement of the EC50 values in accordance with the method described in Example 3.
# [3] = tested on: acyclovir-resistant strain HSV-1R; assay: Anti-herpes activity, viability of infected vero cells (neutral red); assay type: cell-based, herpes simplex virus 1; conditions: for Anti-herpes activity (conclusion in words) / EC50: HSV-1R; for Anti-herpes activity (conclusion in words): 48 and 72 hours; for EC50: MOI 0.01 ID50/cell
# Method: (§1) This method is based on the principle that living cells absorb neutral red, which is a vital stain. The optical density of the medium was measured at the maximum absorption wavelength of neutral red, that is to say 540 nm, using a spectrophotometer (SpectraCount™, microplate photometer, Packard). The optical density at 540 nm is proportional to the number of living cells in an infected culture (McLaren et al., Antiviral Research, 1983; 3: 223-234 and Langlois et al., Standardization, 1986, 14: 201-211).
# (§2) The effective concentration (EC 50%), that is to say the concentration of the sulphated polysaccharide which enables infection of 50% of the cells of a culture to be inhibited, was measured for each viral strain.
# (§3) The determination of the EC50 was carried out in 96-well microtitre plates in accordance with the following protocol. Vero cells are seeded at a cell density of 3.5·10^4 cells/well in 100 μl of MEM medium containing 8% FCS. For each viral suspension defined by its MOI: • the negative control column was filled with 100 μl of MEM medium with 8% FCS, • the virus control column was filled with 50 μl of viral suspension having the required MOI and with 50 μl of MEM medium with 8% FCS, • the PS3 control column was filled with 50 μl of PS3 having the desired concentration range or with 50 μl of acyclovir (Zovirax 0.05-5 μg/ml • finally, all the other columns were filled successively with 50 μl of PS3 having the required concentration range or with 50 μl of acyclovir (Zovirax 0.05-5 μg/ml) and with 50 μl of the viral suspension having the desired MOI.
# (§4) The EC50 corresponding to the concentration which enables the cytopathic effect of the virus to be reduced by 50% was calculated in accordance with the following formula: […]
# (§5) The anti-herpes activity of PS3 was evaluated and compared on each viral suspension of HSV-1, HSV-1R, HSV-2 and HSV-2R defined by an MOI of 0.01 ID50/cell for a cell concentration of 350,000 cells/ml, after incubation times of 48 and 72 hours.
# (§6) This series of experiments was carried out applying the protocol enabling the EC50 to be determined, as described in Example 3.
# (§7) The therapeutic indices (TI) of PS3, as well as three other reference products, that is to say acyclovir, dextran sulphate and phycarine, were determined in parallel for each viral strain.
# (§8) The therapeutic index (TI) represents the ratio between the maximum non-toxic dose (or a dose inducing a quantified toxicity) and the dose inducing a favourable pharmacological effect.
# [4] = tested on: HSV-1; assay: as above; assay type: cell-based, herpes simplex virus 1; conditions: for EC50: MOI 0.01 ID50/cell
# Method: as §1, §2, §3, §4, §5, §6, §7, §8
# [5] = tested on: acyclovir-resistant strain HSV-2R; assay: as above; assay type: cell-based, herpes simplex virus 2; conditions: for Anti-herpes activity (conclusion in words) / EC50: HSV-2R; for Anti-herpes activity (conclusion in words): 48 and 72 hours; for EC50: MOI 0.01 ID50/cell
# Method: as §1, §2, §3, §4, §5, §6, §7, §8
# [6] = tested on: HSV-2; assay: as above; assay type: cell-based, herpes simplex virus 2; conditions: for EC50: MOI 0.01 ID50/cell
# Method: as §1, §2, §3, §4, §5, §6, §7, §8
# [7] = non-resistant strains HSV-1 and HSV-2
# [8] = strains HSV-1, HSV-2, HSV-1R, HSV-2R
Molecule,Inhibitory effect as a function of the moment of use [1],Anti-herpes activity (conclusion in words) [3],Therapeutic index HSV-1R ([3]; incubation time 48 hours),Therapeutic index HSV-1R ([3]; incubation time 72 hours),Therapeutic index HSV-1 ([4]; incubation time 48 hours),Therapeutic index HSV-1 ([4]; incubation time 72 hours),Anti-herpes activity (conclusion in words) [5],Therapeutic index HSV-2R ([5]; incubation time 48 hours),Therapeutic index HSV-2R ([5]; incubation time 72 hours),Therapeutic index HSV-2 ([6]; incubation time 48 hours),Therapeutic index HSV-2 ([6]; incubation time 72 hours),other results
"Nc1nc2c(ncn2COCCO)c(=O)[nH]1 [Acyclovir, acyclovir, reference compound]",no effect,not effective,0,0,">4,902",">1,492",not effective,0,0,>579,>613,"Effect in relation to the moment of addition [1, 7]: effective up; Effect on adsorption [2, 7]: no"
sulphated laminarin [PS3],particularly effective,more effective than acyclovir,">1,157",>530,">1,761",>651,more effective than acyclovir,">3,788",">1,712",">4,808",">1,344","Effect in relation to the moment of addition [1, 8]: not very effective; Effect on adsorption [2, 8]: inhibitory effect on the 4 viral strains solely during treatment C and yes; EC50 ([3]; after 48 hours of treatment): less than 2 μg/ml; EC50 ([3]; after 72 hours of treatment): less than 5 μg/ml; EC50 ([4]; HSV-1, after 48 hours of treatment): less than 2 μg/ml; EC50 ([4]; HSV-1, after 72 hours of treatment): less than 5 μg/ml; EC50 ([5]; after 48 hours of treatment): less than 2 μg/ml; EC50 ([5]; after 72 hours of treatment): less than 5 μg/ml; Anti-herpes activity (conclusion in words) ([6]; HSV-2, 48 and 72 hours): more effective than acyclovir; EC50 ([6]; HSV-2, after 48 hours of treatment): less than 2 μg/ml; EC50 ([6]; HSV-2, after 72 hours of treatment): less than 5 μg/ml"
